{
  "source": "patent US20070276011A1",
  "about": "“Plasminogen Activator Inhibitor-1 Inhibitor” (priority 2003, published 2007)",
  "data": [
    {"biological_target": "recombinant human PAI-1 (Homo sapiens, UniProt P05121)", "sequence (P05121 24-402)": "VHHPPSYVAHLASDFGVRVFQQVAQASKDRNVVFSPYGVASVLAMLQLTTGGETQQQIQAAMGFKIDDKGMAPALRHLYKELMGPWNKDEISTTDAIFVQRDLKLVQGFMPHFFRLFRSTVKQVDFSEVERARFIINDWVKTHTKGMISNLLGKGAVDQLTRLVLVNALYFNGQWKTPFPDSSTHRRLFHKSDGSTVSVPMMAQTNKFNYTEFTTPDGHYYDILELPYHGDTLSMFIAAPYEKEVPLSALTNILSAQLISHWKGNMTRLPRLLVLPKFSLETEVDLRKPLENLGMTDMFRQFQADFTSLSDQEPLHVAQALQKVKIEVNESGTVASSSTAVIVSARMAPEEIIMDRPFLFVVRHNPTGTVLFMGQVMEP", "assay": "PAI-1 inhibitory activity, Test Method A (tPA fluorogenic substrate, Tris buffer pH8.0, 37 C)", "type": "biochemical", "conditions": "test compound 25 μM; Test Method A", "method": "To this solution, 50 μL solution of 400 μM fluogenic substrate for tPA (Pyr-Gly-Arg-MCA, Peptide Institute, Inc.) adjusted with the same buffer was added, and reacted for 30 minutes at 37° C. The reaction was stopped by adding 50 μL of 2% acetic acid. Fluorescence was measured at the excitation wavelength=360 nm, emission wavelength=460 or 465 nm using a microplate reader (SPECTRAFLUOR or GENios) by TECAN. The fluorescence intensities in the presence of the PAI-1 as the control (DMSO) or in the absence of the PAI-1 (tPA alone) were taken as 100% and 0% of PAI-1 activities, respectively, and inhibitory ratios of PAI-1 activities in the presence of the test compound were obtained.\n<Composition of the Tris Buffer (pH8.0)>", "units": {"Inhibitory Ratio at 25 μM (%)": "%"}, "values": [
      {"smiles": "O=C1SC(=Cc2cccc(O)c2O)C(=O)N1Cc1cccc(Oc2ccccc2)c1", "note": "[compound 16, 5-(2,3-Dihydroxybenzylidene)-3-(3-phenoxybenzyl)thiazolidine-2,4-dione]", "Inhibitory Ratio at 25 μM (%)": ">99"},
      {"smiles": "O=C1SC(=Cc2ccc(O)c(O)c2)C(=O)N1Cc1cccc(Oc2ccccc2)c1", "note": "[compound 17]", "Inhibitory Ratio at 25 μM (%)": ">99"},
      {"smiles": "O=C1SC(=Cc2ccc(O)c(O)c2)C(=O)N1Cc1cccc(Cl)c1Cl", "note": "[compound 19]", "Inhibitory Ratio at 25 μM (%)": ">99"},
      {"smiles": "O=C1SC(=Cc2cccc(O)c2O)C(=O)N1Cc1ccc(-c2ccccc2)cc1", "note": "[compound 20, 5-(2,3-Dihydroxybenzylidene)-3-(4-phenylbenzyl)thiazolidine-2,4-dione]", "Inhibitory Ratio at 25 μM (%)": ">99"},
      {"smiles": "O=C1SC(=Cc2ccc(O)c(O)c2)C(=O)N1Cc1ccc(-c2ccccc2)cc1", "note": "[compound 21]", "Inhibitory Ratio at 25 μM (%)": ">99"},
      {"smiles": "O=C1SC(=Cc2cccc(O)c2O)C(=O)N1Cc1cc(F)cc(F)c1", "note": "[compound 24, 5-(2,3-Dihydroxybenzylidene)-3-(3,5-difluorobenzyl)thiazolidine-2,4-dione]", "Inhibitory Ratio at 25 μM (%)": ">99"},
      {"smiles": "O=C1SC(=Cc2ccc(O)c(O)c2)C(=O)N1Cc1cc(F)cc(F)c1", "note": "[compound 25]", "Inhibitory Ratio at 25 μM (%)": ">99"},
      {"smiles": "Cc1cc(C)cc(CN2C(=O)SC(=Cc3cccc(O)c3O)C2=O)c1", "note": "[compound 26, 5-(2,3-Dihydroxybenzylidene)-3-(3,5-dimethylbenzyl)thiazolidine-2,4-dione]", "Inhibitory Ratio at 25 μM (%)": ">99"},
      {"smiles": "Cc1cc(C)cc(CN2C(=O)SC(=Cc3ccc(O)c(O)c3)C2=O)c1", "note": "[compound 27]", "Inhibitory Ratio at 25 μM (%)": ">99"},
      {"smiles": "CCOC(=O)c1cc(C=C2SC(=O)N(Cc3cc(C(F)(F)F)cc(C(F)(F)F)c3)C2=O)ccc1O", "note": "[compound 28, 5-(3-Ethoxycarbonyl-4-hydroxybenzylidene)-3-[3,5-bis(trifluoromethyl)-benzyl]thiazolidine-2,4-dione]", "Inhibitory Ratio at 25 μM (%)": 62},
      {"smiles": "O=C1SC(=Cc2ccc(O)c(O)c2O)C(=O)N1Cc1ccc(Cl)c(Cl)c1", "note": "[compound 29]", "Inhibitory Ratio at 25 μM (%)": 68},
      {"smiles": "O=C1SC(=Cc2cccc(O)c2O)C(=O)N1Cc1cccc(Cl)c1", "note": "[compound 30, 5-(2,3-Dihydroxybenzylidene)-3-(3-chlorobenzyl)thiazolidine-2,4-dione]", "Inhibitory Ratio at 25 μM (%)": ">99"},
      {"smiles": "O=C1SC(=Cc2ccc(O)c(O)c2)C(=O)N1Cc1cccc(Cl)c1", "note": "[compound 31]", "Inhibitory Ratio at 25 μM (%)": ">99"},
      {"smiles": "O=C1SC(=Cc2cccc(O)c2O)C(=O)N1Cc1ccc(Cl)cc1", "note": "[compound 32, 5-(2,3-Dihydroxybenzylidene)-3-(4-chlorobenzyl)thiazolidine-2,4-dione]", "Inhibitory Ratio at 25 μM (%)": ">99"},
      {"smiles": "O=C1SC(=Cc2ccc(O)c(O)c2)C(=O)N1Cc1ccc(Cl)cc1", "note": "[compound 33]", "Inhibitory Ratio at 25 μM (%)": ">99"},
      {"smiles": "O=C1SC(=Cc2cccc(O)c2O)C(=O)N1Cc1cccc(Br)c1", "note": "[compound 34, 5-(2,3-Dihydroxybenzylidene)-3-(3-bromobenzyl)thiazolidine-2,4-dione]", "Inhibitory Ratio at 25 μM (%)": ">99"},
      {"smiles": "O=C1SC(=Cc2ccc(O)c(O)c2)C(=O)N1Cc1cccc(Br)c1", "note": "[compound 35]", "Inhibitory Ratio at 25 μM (%)": ">99"},
      {"smiles": "O=C1SC(=Cc2ccc(O)c(O)c2)C(=O)N1Cc1ccc(Br)cc1", "note": "[compound 37]", "Inhibitory Ratio at 25 μM (%)": ">99"},
      {"smiles": "COc1cc(C=C2SC(=O)N(Cc3ccc(Cl)c(Cl)c3)C2=O)cc(O)c1O", "note": "[compound 38]", "Inhibitory Ratio at 25 μM (%)": ">99"},
      {"smiles": "O=C1SC(=Cc2cc(O)ccc2[N+](=O)[O-])C(=O)N1Cc1ccc(Cl)c(Cl)c1", "note": "[compound 39]", "Inhibitory Ratio at 25 μM (%)": ">99"},
      {"smiles": "O=C1SC(=Cc2cc(O)cc(O)c2)C(=O)N1Cc1ccc(Cl)c(Cl)c1", "note": "[compound 40]", "Inhibitory Ratio at 25 μM (%)": ">99"},
      {"smiles": "O=C1SC(=Cc2ccc(O)c(O)c2)C(=O)N1Cc1cccc(C(F)(F)F)c1", "note": "[compound 42]", "Inhibitory Ratio at 25 μM (%)": ">99"},
      {"smiles": "O=C1SC(=Cc2ccc(O)c(O)c2)C(=O)N1Cc1ccc(C(F)(F)F)cc1", "note": "[compound 44]", "Inhibitory Ratio at 25 μM (%)": ">99"},
      {"smiles": "O=C1SC(=Cc2ccc(O)cc2O)C(=O)N1Cc1ccc(Cl)c(Cl)c1", "note": "[compound 45]", "Inhibitory Ratio at 25 μM (%)": ">99"},
      {"smiles": "O=C1SC(=Cc2ccc(O)c(O)c2)C(=O)N1Cc1cc(Br)cc(Br)c1", "note": "[compound 46, 5-(3,4-Dihydroxybenzylidene)-3-(3,5-dibromobenzyl)thiazolidine-2,4-dione]", "Inhibitory Ratio at 25 μM (%)": ">99"},
      {"smiles": "O=C1SC(=Cc2cccc(O)c2O)C(=O)N1Cc1cc(Br)cc(Br)c1", "note": "[compound 47]", "Inhibitory Ratio at 25 μM (%)": ">99"},
      {"smiles": "O=C1SC(=Cc2ccc(O)c(O)c2)C(=O)N1Cc1cccc([N+](=O)[O-])c1", "note": "[compound 48, 5-(3,4-Dihydroxybenzylidene)-3-(3-nitrobenzyl)thiazolidine-2,4-dione]", "Inhibitory Ratio at 25 μM (%)": 67},
      {"smiles": "O=C1SC(=Cc2cccc(O)c2O)C(=O)N1Cc1cccc([N+](=O)[O-])c1", "note": "[compound 49]", "Inhibitory Ratio at 25 μM (%)": 93},
      {"smiles": "O=C1SC(=Cc2ccc(O)c(O)c2)C(=O)N1Cc1ccc([N+](=O)[O-])cc1", "note": "[compound 50, 5-(3,4-Dihydroxybenzylidene)-3-(4-nitrobenzyl)thiazolidine-2,4-dione]", "Inhibitory Ratio at 25 μM (%)": 82},
      {"smiles": "O=C1SC(=Cc2cccc(O)c2O)C(=O)N1Cc1ccc([N+](=O)[O-])cc1", "note": "[compound 51, 5-(2,3-dihydroxybenzylidene)-3-(4-nitrobenzyl)thiazolidine-2,4-dione]", "Inhibitory Ratio at 25 μM (%)": 86},
      {"smiles": "O=C1SC(=Cc2cc(O)c(O)c(O)c2)C(=O)N1Cc1cccc([N+](=O)[O-])c1", "note": "[compound 52]", "Inhibitory Ratio at 25 μM (%)": 50},
      {"smiles": "O=C1SC(=Cc2cc(O)c(O)c(O)c2)C(=O)N1Cc1cc(Cl)cc(Cl)c1", "note": "[compound 54]", "Inhibitory Ratio at 25 μM (%)": ">99"},
      {"smiles": "O=C1SC(=Cc2cc([N+](=O)[O-])ccc2O)C(=O)N1Cc1ccc(Cl)c(Cl)c1", "note": "[compound 55]", "Inhibitory Ratio at 25 μM (%)": 77},
      {"smiles": "O=C1SC(=Cc2ccc(O)c(O)c2)C(=O)N1Cc1ccc(C=Cc2cc(C(F)(F)F)cc(C(F)(F)F)c2)cc1", "note": "[compound 58, 5-(3,4-Dihydroxybenzylidene)-3-{4-[3,5-bis(trifluoromethyl)styryl]-benzyl}thiazolidine-2,4-dione]", "Inhibitory Ratio at 25 μM (%)": 95},
      {"smiles": "O=C1SC(=Cc2ccc(O)c(O)c2)C(=O)N1Cc1ccc(Oc2ccccc2)cc1", "note": "[compound 60, 5-(3,4-Dihydroxybenzylidene)-3-(4-phenoxybenzyl)thiazolidine-2,4-dione]", "Inhibitory Ratio at 25 μM (%)": ">99"},
      {"smiles": "O=C(O)c1cccc(-c2ccc(C=C3SC(=S)N(c4cccc(F)c4)C3=O)o2)c1", "note": "[compound 62]", "Inhibitory Ratio at 25 μM (%)": 36},
      {"smiles": "O=C1C(=Cc2cc(Cl)ccc2O)SC(=S)N1c1ccccc1", "note": "[compound 65]", "Inhibitory Ratio at 25 μM (%)": 21},
      {"smiles": "O=C1SC(=Cc2cccc(O)c2O)C(=O)N1Cc1cc(C(F)(F)F)cc(C(F)(F)F)c1", "note": "[compound 70]", "Inhibitory Ratio at 25 μM (%)": ">99"},
      {"smiles": "COc1ccc(OC)c(N2C(=O)C(=Cc3ccc(O)c(O)c3)SC2=S)c1", "note": "[compound 75, 5-(3,4-Dihydroxybenzylidene)-3-(2,5-dimethoxyphenyl)rhodanine]", "Inhibitory Ratio at 25 μM (%)": 74},
      {"smiles": "COc1ccc(N2C(=O)C(=Cc3ccc(O)c(O)c3)SC2=S)cc1OC", "note": "[compound 76, 5-(3,4-Dihydroxybenzylidene)-3-(3,4-dimethoxyphenyl)rhodanine]", "Inhibitory Ratio at 25 μM (%)": 56},
      {"smiles": "O=C1C(=Cc2ccc(O)c(O)c2)SC(=S)N1c1ccc(O)c(O)c1", "note": "[compound 77, 5-(3,4-Dihydroxybenzylidene)-3-(3,4-dihydroxyphenyl)rhodanine]", "Inhibitory Ratio at 25 μM (%)": 20},
      {"smiles": "O=C1SC(=Cc2ccc(Cl)c(Cl)c2)C(=O)N1Cc1cc(O)c(O)c(O)c1", "note": "[compound 78, 5-(3,4-Dichlorobenzylidene)-3-(3,4,5-trihydroxybenzyl)thiazolidine-2,4-dione]", "Inhibitory Ratio at 25 μM (%)": 90},
      {"smiles": "CC(=O)Nc1ccc(C=C2SC(=O)N(Cc3ccc(Cl)c(Cl)c3)C2=O)cc1", "note": "[compound 79, 5-[4-(acetamido)benzylidene]-3-(3,4-dichlorobenzyl)-thiazolidine-2,4-dione]", "Inhibitory Ratio at 25 μM (%)": 65},
      {"smiles": "O=C(Nc1ccc(CN2C(=O)SC(=Cc3ccc(O)c(O)c3)C2=O)cc1)c1ccccc1", "note": "[compound 83]", "Inhibitory Ratio at 25 μM (%)": 60},
      {"smiles": "O=C1SC(=Cc2ccc(O)c([N+](=O)[O-])c2)C(=O)N1Cc1ccc(Cl)c(Cl)c1", "note": "[compound 85, 5-(4-hydroxy-3-nitrobenzylidene)-3-(3,4-dichlorobenzyl)-thiazolidine-2,4-dione]", "Inhibitory Ratio at 25 μM (%)": ">99"},
      {"smiles": "Nc1cc(C=C2SC(=O)N(Cc3ccc(Cl)c(Cl)c3)C2=O)ccc1O", "note": "[compound 86]", "Inhibitory Ratio at 25 μM (%)": 21},
      {"smiles": "O=C1SC(=Cc2ccc([N+](=O)[O-])c(O)c2)C(=O)N1Cc1ccc(Cl)c(Cl)c1", "note": "[compound 87, 5-(3-hydroxy-4-nitrobenzylidene)-3-(3,4-dichlorobenzyl)-thiazolidine-2,4-dione]", "Inhibitory Ratio at 25 μM (%)": ">99"},
      {"smiles": "Nc1ccc(C=C2SC(=O)N(Cc3ccc(Cl)c(Cl)c3)C2=O)cc1O", "note": "[compound 88]", "Inhibitory Ratio at 25 μM (%)": 65},
      {"smiles": "O=C1SC(=Cc2cccc(O)c2O)C(=O)N1CCc1ccc(Cl)cc1", "note": "[compound 90, 5-(2,3-Dihydroxybenzylidene)-3-[2-(4-chlorophenyl)ethyl]thiazolidine-2,4-dione]", "Inhibitory Ratio at 25 μM (%)": ">99"}
    ]}
  ]
}
